Measured values published in patent US10828326B2, “Compositions and methods for treating and preventing venom related poisoning” (priority 2015, dated 2020).

System: human plasma
Assay: Thrombelastography of venom naïve human plasma with iron and/or CO addition (Example I)
Assay type: biochemical
Conditions: baseline (venom naïve); 10 μM FeCl3 and/or 100 μM CORM-2; compared to plasma without any additions
Description: Two-hundred mg of lyophilized, pooled venom was obtained from four western diamondback rattlesnakes (Crotalus atrox) for experimentation. Venom was reconstituted in calcium-free phosphate buffered saline (PBS, Sigma-Aldrich, Saint Louis, Mo., USA) at a concentration of 20 mg/ml, aliquoted, and then stored at −80° C. until experimentation at the University of Arizona. Pooled human normal plasma (George King Bio-Medical, Overland Park, Kans., USA) anticoagulated with sodium citrate was rapidly thawed at 37° C. and used for experimentation. To assess the effects of pretreatment of fibrinogen with iron, CO, or both, 1% additions of PBS, ferric chloride (FeCl3, 99.9% pure, Sigma-Aldrich, Saint Louis, Mo., USA) in PBS, or CORM-2 (tricarbonyldichlororuthenium (II) dimer, a CO releasing molecule, Sigma-Aldrich, Saint Louis, Mo., USA) dissolved in dimethyl sulfoxide (DMSO, Sigma-Aldrich, Saint Louis, Mo., USA). The final concentrations of FeCl3 and CORM-2 were 10 μM and 100 μM, respectively; these concentrations are associated with nearly maximal augmenting effects on coagulation kinetics (see, Nielsen V G, et al., Blood Coagul Fibrinolysis 2014; 25:695-702). Plasma was exposed to these various agents for at least 5 min prior to incubations with venom.
The final volume for all subsequently described plasma sample mixtures was 359.4 μl. Sample composition consisted of 326 μl of plasma; 10 μl of tissue factor reagent (0.1% final concentration in distilled water; Diagnostica Stago S.A.S., Asnieres sur Seine, France) and 3.4 μl of PBS or venom (final concentration 0.5 μg/ml). […] The aforementioned plasma and venom mixtures were placed in a disposable cup in a computer-controlled Thrombelastograph® hemostasis system (Model 5000, Haemoscope Corp., Niles, Ill., USA) and incubated for 5 or 20 min at 37° C., with addition of 20 μl of 200 mM CaCl2) as the last step to initiate clotting. Data were collected at 37° C. for 15 min after 5 min of incubation, whereas samples incubated with venom for 20 min had data collected for 30 min, given the prolonged onset of coagulation and diminished rate of thrombus formation. The following elastic modulus-based parameters previously described (see, Nielsen, et al., 2014, Blood Coagul. Fibrinolysis 25:695-702; Nielsen, et al., 2011, Blood Coagul. Fibrinolysis 22: 443-447); Nielsen V G, et al., Blood Coagul Fibrinolysis 2014; 25:845-850) were determined: time to maximum rate of thrombus generation (TMRTG): this is the time interval (min) observed prior to maximum speed of clot growth; maximum rate of thrombus generation (MRTG): this is the maximum velocity of clot growth observed (dynes/cm^2/sec); and total thrombus generation (TTG, dynes/cm^2), the final viscoelastic resistance observed after clot formation.
Data are presented as mean+SD. A commercially available statistical program was used for one-way analysis of variance followed by Holm-Sidak post hoc analyses (SigmaStat 3.1, Systat Software, Inc., San Jose, Calif., USA). Graphics depicting viscoelastic data were generated with a commercially available program (OrigenPro 7.5, OrigenLab Corporation, Northampton, Mass., USA; CorelDRAW12, Corel Corporation, Mountain View, Calif., USA).

## [Cl][Fe]([Cl])[Cl] [iron, ferric chloride]
  maximum rate of thrombus generation (MRTG): increases
  time to maximum rate of thrombus generation (TMRTG): significantly decreases
  total thrombus generation (TTG): does not affect
